Our source for the IC50 values is patent US11827628B2, “Compositions and methods for inhibition of the JAK pathway” (Rigel Pharmaceuticals, Inc., priority 2005, dated 2023).

Where a name gives a salt, the structure may show the parent alone. Read-outs that look alike come from different tables or passages of the source.

The term IC50 denotes the concentration at which inhibition is half-maximal.

In experiment [1] the test system is Primary human T-cells. The experiment can be described thus: Primary Human T-Cell Proliferation Assay Stimulated with IL-2 (CellTiter-Glo). Type of experiment: cell-based. Conditions: read-out: IC50, Example 42. In short, it runs like this: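 Peripheral blood T-cells pre-activated with anti-CD3/anti-CD28 and IL-2 were washed free of IL-2, then cultured with compound plus IL-2 for 72 hours at 37° C, duplicate wells. Viability read as ATP by CellTiter-Glo luminescence; IC50 reported.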
(In general: ATP-based viability assays read luminescence as a measure of living cells.)

The subject of experiment [2] is up-regulation of ICAM-1 (CD54) by IFNγ in A549 lung epithelial cells. The experiment can be described thus: A549 Epithelial Line Stimulated with IFNγ (ICAM-1 surface expression, FACS). Type of experiment: cell-based, human. The note with it: ICAM-1 expression by FACS, read-out: IC50, Example 43. In short, it runs like this:
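A549 cells pre-incubated 1 h with compound (30 μM to 14 nM, 5% FBS, 0.3% DMSO), then stimulated with IFNγ (75 ng/mL) for 24 h. Surface ICAM-1 stained with APC anti-CD54 and read by flow cytometry; geometric mean of live-gated events plotted against concentration for EC50.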
A general note: A flow cytometer gives signals particle by particle.

The mark [3] stands for this setting: primary human T-cells stimulated with IL-2, proliferation.
Where [4] appears, read: A549 cells stimulated with IFNγ.
Setting [5] is: Homo sapiens, T-cell, primary human T-cells stimulated with IL-2, proliferation.
[6] abbreviates: Homo sapiens, A549, A549 cells stimulated with IFNγ.

Take `Cc1ccc(Nc2ncc(F)c(NCCc3ccc(-n4ccnc4)cc3)n2)cc1S(N)(=O)=O` [III-88, N2-(3-Aminosulfonyl-4-methylphenyl)-5-fluoro-N4-[4-(1-imidazolyl)phenethyl]-2,4-pyrimidinediamine]: the IC50 in experiment [1] (Homo sapiens, T-cell, primary human T-cell proliferation stimulated with IL-2) worked out at 0.166 µM; in experiment [2] (Homo sapiens, A549, A549 epithelial line stimulated with IFNγ) it was 10.6 µM.

As for `Cc1noc(CCc2ccc(Nc3nc(Nc4cccc(S(N)(=O)=O)c4)ncc3F)cc2)n1` [III-106, N2-(3-Aminosulfonylphenyl)-5-fluoro-N4-[4-(3-methyl-1,2,4-oxadiazol-5-yl)ethylenephenyl]-2,4-pyrimidinediamine], the IC50 turned out to be 0.0751 µM in experiment [1] (setting [3]) and 5.9 µM in experiment [2] (setting [4]).

Take `NS(=O)(=O)c1cccc(Nc2ncc(F)c(Nc3ccc(Cc4ccncc4)cc3)n2)c1` [III-129, N2-(3-Aminosulfonylphenyl)-5-fluoro-N4-[4-(4-pyridylmethyl)phenyl]-2,4-pyrimidinediamine Methanesulfonic Acid Salt]: the results for the IC50 in experiment [1] (setting [3]) and in experiment [2] (setting [4]) were 0.18 µM and 31.3 µM, respectively.

On to `Cc1cc(Nc2nc(Nc3ccc(S(N)(=O)=O)cc3)ncc2F)cc(C)c1N1CCN(C)CC1` [IX-44, N2-(4-Aminosulfonylphenyl)-N4-[3,5-dimethyl-4-(4-methylpiperazin-1-yl]phenyl)-5-fluoro-2,4-pyrimidinediamine], for which the results for the half-inhibitory concentration (IC50) in experiment [1] (setting [5]) and in experiment [2] (setting [6]) were 0.789 µM and 8.17 µM, respectively.

`COC(=O)c1ccc(Nc2nc(Nc3ccc(F)c(S(N)(=O)=O)c3)ncc2F)s1` [IX-48, N2-(3-Aminosulfonyl-4-fluorophenyl)-5-fluoro-N4-(5-methoxycarbonyl-thiophene-2-yl)-2,4-pyrimidinediamine]: the IC50 in experiment [1] (setting [5]) stood at 2.62 µM; in experiment [2] (setting [6]), 9.56 µM.

Take `COc1ccc(Nc2nc(Nc3cccc(S(=O)(=O)NN4CCC(C)CC4)c3)ncc2F)cc1Cl` [VI-9, N4-(3-Chloro-4-methoxyphenyl)-5-fluoro-N2-[3-(4-methylpipendin-1-yl)aminosulfonylphenyl]-2,4-pyrimidinediamine]: the IC50 in experiment [1] (setting [3]) was 0.945 µM; in experiment [2] (setting [4]) it was 9.96 µM.

As for “N4-(3,4-Dichlorophenyl)-5-fluoro-N2-[3-(4-methylpipendin-1-yl)aminosulfonylphenyl]-2,4-pyrimidinediamine [VI-10]”, the IC50 in experiment [1] (setting [3]) is 2.4 µM; in experiment [2] (setting [4]), 24.9 µM.
